Test results reported in US20220220527A1, “METHOD FOR MEASURING THE ACTIVITY OF A CULTURE OF MICROALGAE” (TotalEnergies SE, priority 2019, published 2022).

Tested on: aerobic bacteria
Test: Dissolved oxygen measurement in an illuminated microalgae-bacteria culture sample with successive additions of substrate and inhibitor (Example 2, FIG. 4)
Type: cell-based
Conditions: culture of Nannochloropsis oculata sp. 0.3 g/L and aerobic bacteria 0.05 g/L
Procedure: A sample of a culture comprising microalgae of the type Nannochloropsis oculata sp. in a concentration of 0.3 g/L. and aerobic bacteria in a concentration of 0.05 g/L was transferred from a bioreactor to a chamber having a volume of 300 mL and comprising a magnetic stirrer and a source for emitting light. The source for emitting light comprised light-emitting diode strings located around the chamber.
During the whole experiment, the chamber was provided with light. In other words, several illumination steps were carried out successively, in order to conduct, during each illumination step, the measurement of the dissolved oxygen present in the sample. This measurement was carried out with a Luminescent Dissolved Oxygen (LDO) sensor (HACH) inserted in the chamber. After each illumination step, the sample was returned to the bioreactor and replaced with a new sample.
More particularly, after point 11, a total amount of 70 mg/L of CuSO4 was added to the sample.

Row | Structure (SMILES) | effect on the activity of bacteria (oxygen production rate of the sample) (successive additions 1 to 11, total 70 mg/L CuSO4 after point 11) | effect on the activity of bacteria (dissolved oxygen concentration, oxygen consumption by respiration) (after each addition (1 to 11) of substrate)
1 | O=S(=O)([O-])[O-].[Cu+2] [CuSO4] | increasing inhibitory effect | –
2 | CCO [ethanol] | – | increases the activity of bacteria
